Measurements taken from patent US10912752B2, “Methods and compositions for reducing ocular discomfort” (Brien Holden Vision Institute Limited, priority 2012, dated 2021).

Tests used:
Assay type in all cases: cell-based, human
HCLE cells [1] = assay: MTT cell viability, titration of osmolyte concentration in isotonic medium
Description: An immortalized human corneal limbal epithelial (HCLE) cell line (a kind gift from Ilene Gipson, Schepens Eye Research Institute, Boston, Mass.) was used in the study. HCLE cells were cultured as previously described (Garrett et al. Invest Ophthalmol Vis Sci 2008; 49:4844-4849). Briefly, the cells were maintained on plastic at 2×10^4/cm^2 in a keratinocyte serum-free medium (K-SFM; Invitrogen-Gibco, Grand Island, N.Y.), supplemented with 25 μg/mL bovine pituitary extract, 0.2 ng/mL epidermal growth factor (EGF; Invitrogen, Mount Waverley, VIC, Australia), and 0.4 mM CaCl2 and were grown at 37° C. in a 5% carbon dioxide atmosphere. To enhance nutrient composition, the cultures were switched at approximately 50% confluence to a 1:1 mixture of K-SFM and low calcium DMEM/F12 (Invitrogen), to achieve confluence. All the experiments involving the culture of HCLE cells were performed at 37° C. in a 5% carbon dioxide atmosphere unless otherwise indicated.
To determine the optimal concentration of betaine for use in the osmoprotective studies, betaine (Sigma-Aldrich, St. Louis, Mo.; 1.0-200 mM) was prepared in culture medium. […] Following treatment with betaine, cell viability was assessed using the 3-[4,5-dimethylthiazol-2-yl]-2,5-diphenyltetr azoliumbromide (MTT) cell survival assays (Promega, Madison, Wis.).

HCLE cells [2] = assay: Flow cytometry cell volume (shrunken cells) under hyperosmotic stress; settings: 16 h; for population of shrunken cells: 500 mOsm + 10 mM, flow cytometry
Text: Forward scatter of the laser light produced by the flow cytometer is proportional to the volume of the cell. This principle was used to analyse the osmoprotective effect of betaine in restoring the cell volume which is adversely affected due to hypertonicity. Cell populations were gated such that the population of cells showing a greater forward scatter (FSC) constituted the percentage of cells with a volume equal to that of a cell under isotonic conditions. On the other hand, the proportion of side scatter in a flow cytometer represents the cell structure complexity and granularity. […] Cells were exposed to isotonic media (300 mOsM), hyperosmotic media (500 mOsM) and hyperosmotic media containing betaine (500 mOsM media+10 mM betaine) for 16 h after which they were analysed using flow cytometer.
Cell volume and Live/Dead staining via flow cytometry were performed using the Attune® Acoustic focusing Cytometer (Life Technologies™ Applied Biosystems). Annexin V and PI kit (Invitrogen™) was used to analyse the non-apoptotic, and the early and late apoptotic cells. Staining was performed as per manufacturer's instructions. Analysis of Annexin staining was conducted using the blue/violet laser with excitation/emission spectra of 480/500 nm (20 mW) and the PI staining analysis was conducted using blue/red laser with an excitation/emission spectra of 490/635 nm.
Cultured HCLE cells were exposed to culture medium with or without carnitine (10 mM) at 300 mOsm (isotonic) and 500 mOsm (hyperosmotic) for 16 h. Flow cytometry was performed to determine the cell volume changes based on the forward and side scatter values detected.

TNF-α = TNF-α production by HCLE cells in hyperosmolar medium (ELISA); settings: 10 mM, 500 mOsm, 16 h, vs hyperosmolar medium without osmolyte
Description: Enzyme-linked immunosorbent assay (ELISA) was used to quantify TNF-α. The culture supernatants were collected, centrifuged at 1500 rpm for 10 min to remove cellular debris and stored at −80° C. until processed. Assays were performed according to manufacturer's protocol (R&D Systems, Minneapolis, Minn.).
(§1) Cultured human corneal limbal epithelial (HCLE) cells were exposed to culture medium with or without carnitine (10 mM) at 300 mOsm (isotonic), 450 mOsm (moderate), and 500 mOsm (hyperosmotic) for 16 h. Induction of apoptosis was detected by quantification of the proteolytic activity of caspase-8, caspase-9, or caspase-3/7 using caspase activity assays, and production of tumor necrosis factor (TNF)-α, a known apoptosis inducer, using ELISA. Annexin V and Propidium iodine (PI) staining was performed to detect the percentage of apoptotic cells using confocal microscopy and flow cytometry.

caspase-8 = assay: Caspase-Glo luminescent caspase activity in HCLE under hyperosmotic stress; settings: 16 h; for reduction of caspase-8 activity: 500 mOsm
Description: Caspase-3/7, -8 and -9 activities were assayed using a luminescent assay kit (Promega, Madison, Wis.) according to the manufacturer's instructions. Briefly, 100 μL of Caspase-Glo-3/7, -8 and -9 reagents were added to HCLE at maintained on plastic at 2×10^4/cm^2, mixed and incubated for one hour at room temperature. Luminescence was measured using a SpectraFluor Plus microplate reader.
as §1

| change in Caspase-8 activity (in words) (caspase-8; 10 mM, hypertonic medium) | Structure (SMILES) | betaine concentration not toxic to the cells (HCLE cells [1]; titration 0-200 mM, 300 mOsm medium, 16 h, MTT) | percentage of healthy (normal volume) cells (HCLE cells [2]; 500 mOsm + 10 mM vs 500 mOsm) | population of shrunken cells (HCLE cells [2]) [%] | reduction in TNF-α levels (TNF-α) [%] | reduction of caspase-8 activity (caspase-8; 5 mM) | reduction of caspase-8 activity (caspase-8; 10 mM) | concentration optimal to carry out osmoprotective studies (cell viability analysis) (HCLE cells [1]; toxicity of various concentrations) [µM] | population of shrunken cells (HCLE cells [2]; listed as L-Carnitine) [%] |
| --- | --- | --- | --- | --- | --- | --- | --- | --- | --- |
| – | C[N+](C)(C)CC(=O)[O-] [betaine, trimethylglycine] | up to 40 mM | significantly increased | 11.01 | 40 | 2- to 3 fold | 4- to 5.2 fold | – | – |
| minimum or no visible decline | C[N+](C)(C)CC(O)CC(=O)[O-] (centres unmarked) [carnitine, 3-hydroxy-4-(trimethylazaniumyl)butanoate] | – | – | ~15 | 25 | – | – | 10000 | 18.01 |
